Paper PMC6274061, “Inhibition of Urease by Disulfiram, an FDA-Approved Thiol Reagent Used in Humans” (Molecules, 2016)

Tests used:
[1] = tested on: Citrullus vulgaris urease (CVU); assay: Inhibition of CVU urease activity after 1 h incubation with inhibitor (phenol red assay); assay type: biochemical; settings: for IC50: CVU incubated 1 h at 37 °C with inhibitor, 2 mM urea, pH 6.8; for Plateau (% of Initial): residual activity at plateau from the fit, 1 h at 37 °C
Description: (§1) The specific ureolytic activity was assayed spectrophotometrically at 37 °C in a Fluostar Omega (BMG LABTECH Inc, Cary, NC, USA) spectrometer. The reaction was monitoring by the increase of ammonia concentration following the absorbance at 558 nm by The Phenol Red Assay, taking similar considerations as the one described elsewhere. The standard urease test consisted in 0.3 mL of reaction buffer: 0.5 mM MES, 0.016 mM phenol red, and 50 mM urea, at pH 6.8. All assays were initiated by the addition of the enzyme (≈0.6 ng/mL). Initial velocity rates were determined from the initial linear portion of the reaction course-times. Saturation kinetics experiments were performed under the same conditions, except that different concentrations of urea were used (0.5 to 50 mM), and data were fitted to Michaelis-Menten model (Equation (1)). All experiments presented were reproduced at least three times.
To evaluate the saturation of CVU with inhibitors, enzyme was incubated for one hour at 37 °C with different concentrations of inhibitors in the standard reaction mixture, the reactions were started by the addition of urea to a final concentration of 2 mM, followed by the measurement of the residual activity. Percentages of residual activity were plotted against inhibitor concentration. Since two types of behavior were observed, two different equations were used to fit the data. In one case, we observed a trend that produced a full loss of activity (Equation (3)), and in the other case a partial inhibition is observed, meaning that at enzyme saturation activity value is non-zero (Equation (4)).
Equation (3): Full-Inhibition Saturation Kinetics, (3) residual activity (%) = A0 IC50h/IC50h+[I]^h where h, is the Hill coefficient; IC50 is the apparent inhibition constant; [I], is the inhibitor concentration. Residual activity and A0 is the same as in Equation (2).
Equation (4): Partially-Inhibition Saturation Kinetics, (4) residual activity (%)= A0 IC50h/IC50h+[I]^h+plateau where parameters and variables are same as in Equation (3), with the difference that a plateau is included.
Inhibition of CVU by Aldrithiol (2,2′-dipyridyl disulphide, here in after called DPS for dipyridine sulfide), captopril ((S)-1-(3-Mercapto-2-methyl-1-oxopropyl)-L-proline), bithionol (2,2′-Sulfanediylbis(4,6-dichlorophenol)) and quercetin were performed in a similar manner as for inhibition experiments with DSF. These inhibitors were purchased from Sigma-Aldrich (Toluca, Mexico). Inhibition kinetics data were fitted to the indicated equation. The protection of the activity by a given inhibitor (called I2), at a concentration equal to the IC50 value, over the inhibition produced by DPS was monitored measuring changes in initial velocity and plotting the percentage of inhibition for each treatment and expressed as mean ± SEM. Student t test was used to estimate statistical significance. Measurements of variance were performed using a one-way ANOVA. Differences were considered significant when p was less than 0.05. All experiments were performed at least three times, and in all cases the SEM justifies the accuracy of the values, except in the case of inhibition kinetics of bithionol and quercetin in which SEM is higher than 10% of the estimated value.

[2] = tested on: Citrullus vulgaris urease (CVU); assay: Time courses of inactivation of CVU pre-incubated with DSF; assay type: biochemical; settings: 37 °C
Description: as §1
To evaluate the time and concentration-dependence of the inhibition of urease activity, the initial rates of urea hydrolysis were measured in the standard reaction mixture in the presence of DSF (tetraethylthiuram disulphide), (C2H5)2N(C=S)S–S(S=C)N(C2H5)2, during different incubation periods. DSF was purchased from Sigma-Aldrich (Toluca, Mexico). In these experiments urease reactions were started by the addition of urea to a final concentration of 2 mM. The residual activity in percentage of the initial was plotted against the time of incubation and fitted to an exponential decay equation with a plateau (Equation (2)).
Equation (2): Enzyme inactivation, (2) residual activity = (A0−plateau)(e^−kt)+plateau, where the residual activity is the observed activity upon the inhibition; A0, is the activity observed in the absence of the inhibitor; the plateau, is the value of Y minimum; k, is the observed one phase kinetic constant, and t is the time of incubation. Activity was transformed to percentage, where activity in the absence of DSF is 100%.

[3] = tested on: Citrullus vulgaris urease (CVU); assay: Inhibition pattern: urea saturation kinetics of CVU at fixed/variable DSF concentrations; assay type: biochemical
Description: as §1, with “three times. For the inhibition pattern urea saturation kinetics experiments were performed at fixed/variable concentrations of DSF and data were globally fitted to Equation (5).” for “three times.”

[4] = target: Citrullus vulgaris urease (CVU); assay: Binding equilibrium by intrinsic fluorescence quenching; settings: 1 h after addition, 37 °C, read-out: DSF dissociation constant (Kd)
Description: The binding of DSF was monitored after apparent equilibrium by measuring the intrinsic tryptophan fluorescence intensity changes at 37 °C using a spectrometer (Fluostar Omega, BMG). CVU was excited at 290 nm, and fluorescence intensity was recorded at 340 nm after an hour of incubation at 37 °C in the absence or presence of different concentrations of DSF. In order to discard solvent fluorescent changes, a control experiment was performed in which the different volumes of solvent (same as in the titration volumes used in ligand additions) were added to urease. Fluorescence intensity changes were plotted against the DSF concentrations and fitted to […]. Equation (6): Fluorescence binding saturation, (6) ΔIF = Bmax [DSF]/Kd+[DSF] where ΔIF, is the change in fluorescence intensity at 340 nm; Bmax, is the maximum ΔIF and corresponds to the maximum binding; [DSF], is the disulfiram concentration and Kd, is the dissociation constant.

IC50 [1]	Ki ([3]; global fit to non-competitive inhibition, Equation (5), read-out: Inhibition constant (Ki))	Kd [4]	SMILES	Plateau (% of Initial) [1]	apparent half-life time of inactivation ([2]; 50 µM DSF)	kobs of inactivation ([2]; 50 µM DSF)	plateau, % of the initial velocity ([2]; 50 µM DSF)	apparent half-life time of inactivation ([2]; 80 µM DSF)	kobs of inactivation ([2]; 80 µM DSF)	plateau, % of the initial velocity ([2]; 80 µM DSF)	Inhibition mechanism ([3]; Lineweaver–Burk plots of the inhibition pattern)
376 ± 120 µM	–	–	Oc1c(Cl)cc(Cl)cc1Sc1cc(Cl)cc(Cl)c1O [Bithionol, 2,2′-Sulfanediylbis(4,6-dichlorophenol)]	34.53 ± 18.23 % of Initial	–	–	–	–	–	–	–
524 ± 39.6 µM	–	–	CC(CS)C(=O)N1CCC[C@H]1C(=O)O (stereo partly drawn) [Captopril, (S)-1-(3-Mercapto-2-methyl-1-oxopropyl)-L-proline]	0.00 % of Initial	–	–	–	–	–	–	–
–	67.6 ± 7 µM	54.9 ± 3.9 µM	CCN(CC)C(=S)SSC(=S)N(CC)CC [DSF, tetraethylthiuram disulphide]	0.00 % of Initial	13.80 min	0.050 ± 0.007 min⁻¹	63.60% ± 1.40	7.50 min	0.092 ± 0.024 min⁻¹	53.48% ± 3.05	non-competitive inhibition mechanism
155 ± 10.2 µM	–	–	O=c1c(O)c(-c2ccc(O)c(O)c2)oc2cc(O)cc(O)c12 [Quercetin, quercetin]	58.86 ± 1.52 % of Initial	–	–	–	–	–	–	–
